In patent US6620961B1, “Biarylalkylenecarbamic acid derivatives and bacteriocides for agricultural and horticultural use” (Kumiai Chemical Industry Co., Ltd., priority 1997, dated 2003):

How the values were obtained:
Botrytis cinerea = experiment: Test for Preventive Effect on Cucumber Gray Mold; type: in vivo; set-up: key: A: No diseased area; B: Diseased area of less than 25%; C: Diseased area of at least 25% but less than 50%; Diseased area of at least 50%; conditions: cotyledonary cucumber seedlings (Sagami-hanziro), 500 ppm active ingredient, 10 ml per pot, 3 days after inoculation
Method: [table] Test for Preventive Effect on Cucumber Gray Mold 9 cucumber seeds (variety: Sagami-hanziro) were sown in each 9 cm−9 cm polyvinyl chloride pot and grown in a greenhouse for 7 days. […] Then, the seedlings were inoculated with milled Botrytis cinerea hyphae in solution by spraying and immediately placed in a moist chamber at 22° C. 3 days after the inoculation, the total diseased area in each pot was observed and evaluated on the basis of the standards shown in Table 59.

[1] = tested on: Pseudoperonospora cubensis; experiment: Test for Preventive Effect on Cucumber Downy Mildew; type: in vivo; set-up: key: A: No diseased area; B: Diseased area of less than 25%; C: Diseased area of at least 25% but less than 50%; Diseased area of at least 50%; conditions: cucumber seedlings, wettable powder at 500 ppm active ingredient, 7 days after inoculation
Method: Test for Preventive Effect on Cucumber Downy Mildew 9 cucumber seeds (variety: Sagami-hanpaku) were sown in each 9 cmx9 cm polyvinyl chloride pot and grown in a greenhouse for 7 days. […] Then, the seedlings were inoculated with Pseudoperonospora cubensis zoosporangia in suspension by spraying and immediately placed in a moist chamber at 22° C. for 24 hours. Thereafter, the seedlings were placed in a greenhouse. 7 days after the inoculation, the total diseased area in each pot was observed and evaluated on the basis of the standards shown in Table 59. [table]

Venturia inaequalis = experiment: Test for Preventive Effect on Apple Scab; type: in vivo; set-up: key: A: No diseased area; B: Diseased area of less than 25%; C: Diseased area of at least 25% but less than 50%; Diseased area of at least 50%; conditions: 14 days after inoculation; for Evaluation (diseased area of the upper two inoculated leaves): apple seedlings (Kogyoku), 500 ppm active ingredient, 20 ml per pot; for Evaluation (diseased areas of the upper two of the inoculated leaves): apple seedlings, wettable powder at 500 ppm active ingredient, preventive
Method: [table] Test for Preventive Effect on Apple Scab 5 apple seeds (variety: Kogyoku) were sown in each 9 cm×9 cm polyvinyl chloride pot and grown in a greenhouse for 20 days. […] Then, the seedlings were inoculated with Venturia inaequalis spores in suspension by spraying and immediately placed in a moist chamber at 22° C. for 48 hours. Thereafter, the seedlings were placed in a greenhouse for development of the disease. 14 days after the inoculation, the diseased areas of the upper two of the inoculated leaves were observed and evaluated on the basis of the standards shown in Table 59.

Erysiphe graminis = experiment: Test for Preventive Effect on Wheat Powdery Mildew; type: in vivo; set-up: key: A: No diseased area; B: Diseased area of less than 25%; C: Diseased area of at least 25% but less than 50%; Diseased area of at least 50%; conditions: wheat seedlings (Norin-61-go), 500 ppm active ingredient, 10 ml per pot, 10 days after inoculation
Method: [table] Test for Preventive Effect on Wheat Powdery Mildew 9 wheat seeds (variety: […] Then, the seedlings were inoculated with […] graminis spores in suspension and placed in a greenhouse at 25 to 30° C. 10 days after the inoculation, the total diseases area of the first leaves in each pot was observed and evaluated on the basis of the standards shown in Table 59. The results are shown in Tables 67 to 71.

For `COC(=O)NCc1cc(-c2cccc(C(C)=O)c2)ccc1Cl` [2-450], the “Evaluation (total diseased area in each pot)” value (Botrytis cinerea) was “A”, the “Evaluation (total diseased area in each pot)” value [1] was “A” and the “Evaluation (diseased area of the upper two inoculated leaves)” value (Venturia inaequalis) was “A”. For the same compound, the “Evaluation (total diseased area of the first leaves in each pot)” value (Erysiphe graminis) was “A”.

With `COC(=O)NCc1cc(-c2ccc(Br)cc2)ccc1Cl` [2-453] the “Evaluation (total diseased area in each pot)” value (Botrytis cinerea) was “A”, the “Evaluation (diseased area of the upper two inoculated leaves)” value (Venturia inaequalis) was “A” and the “Evaluation (total diseased area of the first leaves in each pot)” value (Erysiphe graminis) was “A”.

In the case of `COC(=O)NC(C)c1cccc(-c2ccc(OC)cc2)c1` (centres unmarked) [3-15, Methyl N-{1-[3-(4-methoxyphenyl)phenyl]ethyl}carbamate], the “Evaluation (total diseased area in each pot)” value [1] is reported as “A” and the melting point is reported as 117 to 119 °C.

With `COC(=O)NCc1cccc(-c2ccc(OC)cc2)c1` [1-42] the “Evaluation (total diseased area in each pot)” value (Botrytis cinerea) was “B (Diseased area of less than 25%)”, the “Evaluation (diseased areas of the upper two of the inoculated leaves)” value (Venturia inaequalis) was “A” and the “Evaluation (total diseased area of the first leaves in each pot)” value (Erysiphe graminis) was “B (Diseased area of less than 25%)”.

In the case of `COC(=O)NCc1cc(-c2cccc(C(F)(F)F)c2)ccc1OC` [2-343], the “Evaluation (total diseased area in each pot)” value (Botrytis cinerea) is reported as “B (Diseased area of less than 25%)”, the “Evaluation (total diseased area in each pot)” value [1] is reported as “A” and the “Evaluation (diseased area of the upper two inoculated leaves)” value (Venturia inaequalis) is reported as “A”. The “Evaluation (total diseased area of the first leaves in each pot)” value (Erysiphe graminis) was “B (Diseased area of less than 25%)”.

For `CC(C)OC(=O)NCc1cccc(-c2ccccc2)c1` [1-150, Isopropyl N-(3-phenylbenzyl)carbamate], the melting point was 61 to 64 °C and the “Evaluation (total diseased area of the first leaves in each pot)” value (Erysiphe graminis) was “B (Diseased area of less than 25%)”.

With `COC(=O)NCc1cccc(-c2ccc(C)cc2)c1` [1-12] the “Evaluation (total diseased area in each pot)” value (Botrytis cinerea) was “A”, the “Evaluation (total diseased area in each pot)” value [1] was “B (Diseased area of less than 25%)” and the “Evaluation (diseased areas of the upper two of the inoculated leaves)” value (Venturia inaequalis) was “A”. The “Evaluation (total diseased area of the first leaves in each pot)” value (Erysiphe graminis) was “A”.

With `COC(=O)NCc1cc(-c2ccc(OC)c(OC)c2)ccc1Cl` [2-455] the “Evaluation (total diseased area in each pot)” value (Botrytis cinerea) was “B (Diseased area of less than 25%)”, the “Evaluation (diseased area of the upper two inoculated leaves)” value (Venturia inaequalis) was “A” and the “Evaluation (total diseased area of the first leaves in each pot)” value (Erysiphe graminis) was “B (Diseased area of less than 25%)”.

In the case of `COC(=O)NCc1cc(-c2ccc(C)cc2)ccc1I` [2-551], the “Evaluation (total diseased area in each pot)” value (Botrytis cinerea) is reported as “B (Diseased area of less than 25%)”, the “Evaluation (diseased area of the upper two inoculated leaves)” value (Venturia inaequalis) is reported as “A” and the “Evaluation (total diseased area of the first leaves in each pot)” value (Erysiphe graminis) is reported as “B (Diseased area of less than 25%)”.

In the case of `COC(=O)NCc1cccc(-c2ccccc2)c1C` [2-1, Methyl N-(2-methyl-3-phenylbenzyl)carbamate], the melting point is reported as 91 to 94 °C and the “Evaluation (total diseased area of the first leaves in each pot)” value (Erysiphe graminis) is reported as “A”.

For `CCc1cccc(-c2ccc(F)c(CNC(=O)OC)c2)c1` [2-111], the “Evaluation (total diseased area in each pot)” value (Botrytis cinerea) was “B (Diseased area of less than 25%)”, the “Evaluation (total diseased area in each pot)” value [1] was “A” and the “Evaluation (diseased areas of the upper two of the inoculated leaves)” value (Venturia inaequalis) was “A”. The “Evaluation (total diseased area of the first leaves in each pot)” value (Erysiphe graminis) was “B (Diseased area of less than 25%)”.

With `COC(=O)NCc1cccc(-c2cccc(C)c2)c1` [1-11] the “Evaluation (total diseased area in each pot)” value (Botrytis cinerea) was “B (Diseased area of less than 25%)”, the “Evaluation (total diseased area in each pot)” value [1] was “A” and the “Evaluation (diseased areas of the upper two of the inoculated leaves)” value (Venturia inaequalis) was “A”. The “Evaluation (total diseased area of the first leaves in each pot)” value (Erysiphe graminis) was “A”.

In the case of `COC(=O)NCc1cc(-c2ccc(C)c(C)c2)ccc1OC` [2-346], the “Evaluation (total diseased area in each pot)” value (Botrytis cinerea) is reported as “B (Diseased area of less than 25%)”, the “Evaluation (total diseased area in each pot)” value [1] is reported as “B (Diseased area of less than 25%)” and the “Evaluation (diseased area of the upper two inoculated leaves)” value (Venturia inaequalis) is reported as “A”. The “Evaluation (total diseased area of the first leaves in each pot)” value (Erysiphe graminis) was “A”.

For `COC(=O)NCc1cc(-c2cccc(O)c2)ccc1Cl` [2-448], the “Evaluation (total diseased area in each pot)” value (Botrytis cinerea) was “A”, the “Evaluation (diseased area of the upper two inoculated leaves)” value (Venturia inaequalis) was “A” and the “Evaluation (total diseased area of the first leaves in each pot)” value (Erysiphe graminis) was “A”.

For `COC(=O)NC(C)c1cccc(-c2ccc(Cl)cc2)c1` (racemic) [3-5], the “Evaluation (total diseased area in each pot)” value (Botrytis cinerea) was “B (Diseased area of less than 25%)”, the “Evaluation (diseased area of the upper two inoculated leaves)” value (Venturia inaequalis) was “A” and the “Evaluation (total diseased area of the first leaves in each pot)” value (Erysiphe graminis) was “B (Diseased area of less than 25%)”.

For `COC(=O)NCc1cc(-c2cccc(Cl)c2)ccc1OC` [2-331], the “Evaluation (total diseased area in each pot)” value (Botrytis cinerea) was “A”, the “Evaluation (total diseased area in each pot)” value [1] was “A” and the “Evaluation (diseased area of the upper two inoculated leaves)” value (Venturia inaequalis) was “A”. For the same compound, the “Evaluation (total diseased area of the first leaves in each pot)” value (Erysiphe graminis) was “B (Diseased area of less than 25%)”.

In the case of `COC(=O)NCc1cc(-c2ccc(C)cc2)ccc1OC` [2-334], the “Evaluation (total diseased area in each pot)” value (Botrytis cinerea) is reported as “A”, the “Evaluation (total diseased area in each pot)” value [1] is reported as “B (Diseased area of less than 25%)” and the “Evaluation (diseased area of the upper two inoculated leaves)” value (Venturia inaequalis) is reported as “A”. The “Evaluation (total diseased area of the first leaves in each pot)” value (Erysiphe graminis) was “B (Diseased area of less than 25%)”.

In the case of `COC(=O)NCc1cccc(-c2ccccc2)c1` [1-1, Methyl N-(3-phenylbenzyl)carbamate], the melting point is reported as 49 to 52 °C, the “Evaluation (diseased areas of the upper two of the inoculated leaves)” value (Venturia inaequalis) is reported as “A” and the “Evaluation (total diseased area of the first leaves in each pot)” value (Erysiphe graminis) is reported as “A”.

With `COC(=O)NC(C)c1cc(-c2ccc(F)cc2)ccc1F` (racemic) [3-28] the “Evaluation (total diseased area in each pot)” value (Botrytis cinerea) was “B (Diseased area of less than 25%)”, the “Evaluation (diseased area of the upper two inoculated leaves)” value (Venturia inaequalis) was “A” and the “Evaluation (total diseased area of the first leaves in each pot)” value (Erysiphe graminis) was “B (Diseased area of less than 25%)”.

With `COC(=O)NCc1cccc(-c2ccc(C(F)(F)F)cc2)c1` [1-35] the “Evaluation (total diseased area in each pot)” value (Botrytis cinerea) was “B (Diseased area of less than 25%)”, the “Evaluation (diseased areas of the upper two of the inoculated leaves)” value (Venturia inaequalis) was “A” and the “Evaluation (total diseased area of the first leaves in each pot)” value (Erysiphe graminis) was “A”.

In the case of `COC(=O)NC(C)c1cc(-c2ccc(Cl)cc2)ccc1F` (racemic) [3-30], the “Evaluation (total diseased area in each pot)” value (Botrytis cinerea) is reported as “B (Diseased area of less than 25%)”, the “Evaluation (diseased area of the upper two inoculated leaves)” value (Venturia inaequalis) is reported as “B (Diseased area of less than 25%)” and the “Evaluation (total diseased area of the first leaves in each pot)” value (Erysiphe graminis) is reported as “B (Diseased area of less than 25%)”.

For `COC(=O)NCc1cccc(-c2ccc(Cl)cc2)c1` [1-4], the “Evaluation (total diseased area in each pot)” value (Botrytis cinerea) was “A”, the “Evaluation (diseased areas of the upper two of the inoculated leaves)” value (Venturia inaequalis) was “A” and the “Evaluation (total diseased area of the first leaves in each pot)” value (Erysiphe graminis) was “B (Diseased area of less than 25%)”.
